Test system: Detoxification protein genes
Test: DNA chip mRNA expression in yeast, detoxification protein genes (Table 8)
Format: cell-based, Saccharomyces cerevisiae S288C
Procedure: Yeast (Saccharomyces cerevisiae S288C (α SUC2mal mel gap2 CUP1)) were incubated at 25° C. on YPD medium (yeast extract 1%, polypepton 2%, glucose 2%). One of toxic chemical substances was added to the cells at logarithmic growth phase, and the cells were further incubated for two hours. Cells were cultured without any chemical substance in the same condition, and were used as control. Concentrations of the chemical substances were defined to inhibit the growth of the yeast but not lead to death.
After completion of the incubation, the culture was centrifuged to collect the cells. To the cells, sodium acetate buffer (50 mM sodium acetate, 10 mM EDTA, 1% SDS) was added, and the mixture was shaken at 65° C. for five minutes, followed by returning to room temperature, and obtaining the supernatant, of which the procedures were repeated two times. To the supernatant, ½ amount of a solution of phenol/chloroform was added, and the mixture was centrifuged to give a supernatant, which was added with an equal amount of chloroform, and the mixture was centrifuged to give a supernatant. To the supernatant, an equal amount of isopropanol containing 0.3 M sodium acetate was added, and the mixture was allowed to stand at room temperature for 30 minutes, after which the mixture was centrifuged to give a sediment of the whole RNAs. Seventy % ethanol was added to the sediment, and the mixture was again centrifuged to give a sediment, which was then dried and dissolved in water. mRNA was isolated from the whole RNAs as followings. In view of the fact that a poly A chain is attached to the 3′ terminus of mRNA, a polynucleotide having a poly T structure which was immobilized on the surface of latex beads was used to trap the mRNA, and then the mRNA was washed and eluted with spine column (Oligotex-dT30<Super>mRNA Purification Kit, Takara). Reverse transcription of the mRNA was conducted with a reverse transcriptase (Super Script II Reverse Transcriptase; catalogue No. 18064-014, GibcoBRL) using fluorescence-labeled nucleotides to give cDNAs that were introduced with Cy3-dUTP or Cy5-dUTP during the reverse transcription.
The labeled cDNAs were dissolved in TE buffer (10mM Tris-HCl/1 mM EDTA, pH8.0), and the solution was dropped on the DNA chip containing the whole genes of yeast (DNA Chip Research Inc. Japan) so that the cDNAs were hybridized on the DNA chip at 65° C. for over 12 hours. The fluoresces intensity of the DNA chip was read with a scanner, and the ratio relative to the fluorescence intensity resulting from the absence of chemical substance was estimated as the following, which is shown in Tables 1 to 9: […]

## C[S+](C)[O-] [(15), dimethylsulfoxide]
Yeast gene YBL064C
  The level of expressed mRNA in the presence of chemical substance/The level of expressed mRNA in the absence of chemical substance: 1.3
Yeast gene YBR008C
  The level of expressed mRNA in the presence of chemical substance/The level of expressed mRNA in the absence of chemical substance: 0.8
Yeast gene YBR244W
  The level of expressed mRNA in the presence of chemical substance/The level of expressed mRNA in the absence of chemical substance: 0.4
Yeast gene YBR293W
  The level of expressed mRNA in the presence of chemical substance/The level of expressed mRNA in the absence of chemical substance: 3.1
Yeast gene YCR083W
  The level of expressed mRNA in the presence of chemical substance/The level of expressed mRNA in the absence of chemical substance: 1.0
Yeast gene YDL100C
  The level of expressed mRNA in the presence of chemical substance/The level of expressed mRNA in the absence of chemical substance: 1.0
Yeast gene YDR256C
  The level of expressed mRNA in the presence of chemical substance/The level of expressed mRNA in the absence of chemical substance: 1.0
Yeast gene YDR453C
  The level of expressed mRNA in the presence of chemical substance/The level of expressed mRNA in the absence of chemical substance: 2.3
Yeast gene YDR513W
  The level of expressed mRNA in the presence of chemical substance/The level of expressed mRNA in the absence of chemical substance: 1.3
Yeast gene YDR538W
  The level of expressed mRNA in the presence of chemical substance/The level of expressed mRNA in the absence of chemical substance: 1.0
Yeast gene YER185W
  The level of expressed mRNA in the presence of chemical substance/The level of expressed mRNA in the absence of chemical substance: 1.7
Yeast gene YGL013C
  The level of expressed mRNA in the presence of chemical substance/The level of expressed mRNA in the absence of chemical substance: 1.0
Yeast gene YGR088W
  The level of expressed mRNA in the presence of chemical substance/The level of expressed mRNA in the absence of chemical substance: 0.7
Yeast gene YGR138C
  The level of expressed mRNA in the presence of chemical substance/The level of expressed mRNA in the absence of chemical substance: 4.5
Yeast gene YGR197C
  The level of expressed mRNA in the presence of chemical substance/The level of expressed mRNA in the absence of chemical substance: 1.0
Yeast gene YGR209C
  The level of expressed mRNA in the presence of chemical substance/The level of expressed mRNA in the absence of chemical substance: 1.3
Yeast gene YHL040C
  The level of expressed mRNA in the presence of chemical substance/The level of expressed mRNA in the absence of chemical substance: 3.4
Yeast gene YHR008C
  The level of expressed mRNA in the presence of chemical substance/The level of expressed mRNA in the absence of chemical substance: 1.7
Yeast gene YHR048W
  The level of expressed mRNA in the presence of chemical substance/The level of expressed mRNA in the absence of chemical substance: 0.9
Yeast gene YHR053C
  The level of expressed mRNA in the presence of chemical substance/The level of expressed mRNA in the absence of chemical substance: 0.3
Yeast gene YHR055C
  The level of expressed mRNA in the presence of chemical substance/The level of expressed mRNA in the absence of chemical substance: 0.5
Yeast gene YJL101C
  The level of expressed mRNA in the presence of chemical substance/The level of expressed mRNA in the absence of chemical substance: 0.5
Yeast gene YJR104C
  The level of expressed mRNA in the presence of chemical substance/The level of expressed mRNA in the absence of chemical substance: 1.3
Yeast gene YKL026C
  The level of expressed mRNA in the presence of chemical substance/The level of expressed mRNA in the absence of chemical substance: 0.8
Yeast gene YKL064W
  The level of expressed mRNA in the presence of chemical substance/The level of expressed mRNA in the absence of chemical substance: 0.7
Yeast gene YKR066C
  The level of expressed mRNA in the presence of chemical substance/The level of expressed mRNA in the absence of chemical substance: 0.6
Yeast gene YLL028W
  The level of expressed mRNA in the presence of chemical substance/The level of expressed mRNA in the absence of chemical substance: 3.1
Yeast gene YLR043C
  The level of expressed mRNA in the presence of chemical substance/The level of expressed mRNA in the absence of chemical substance: 0.5
Yeast gene YLR046C
  The level of expressed mRNA in the presence of chemical substance/The level of expressed mRNA in the absence of chemical substance: 0.8
Yeast gene YML116W
  The level of expressed mRNA in the presence of chemical substance/The level of expressed mRNA in the absence of chemical substance: 1.9
Yeast gene YMR038C
  The level of expressed mRNA in the presence of chemical substance/The level of expressed mRNA in the absence of chemical substance: 0.6
Yeast gene YNL241C
  The level of expressed mRNA in the presence of chemical substance/The level of expressed mRNA in the absence of chemical substance: 7.0
Yeast gene YNL259C
  The level of expressed mRNA in the presence of chemical substance/The level of expressed mRNA in the absence of chemical substance: 0.7
Yeast gene YOL158C
  The level of expressed mRNA in the presence of chemical substance/The level of expressed mRNA in the absence of chemical substance: 0.9
Yeast gene YOR153W
  The level of expressed mRNA in the presence of chemical substance/The level of expressed mRNA in the absence of chemical substance: 3.6
Yeast gene YOR251C
  The level of expressed mRNA in the presence of chemical substance/The level of expressed mRNA in the absence of chemical substance: 0.6
Yeast gene YOR273C
  The level of expressed mRNA in the presence of chemical substance/The level of expressed mRNA in the absence of chemical substance: 0.8
Yeast gene YPR200C
  The level of expressed mRNA in the presence of chemical substance/The level of expressed mRNA in the absence of chemical substance: 0.7

Source: patent publication US8192962B2, “Processes for detecting toxic substances” (Daikin Industries, Ltd., priority 2001, dated 2012)
